Results as given in patent publication US7666901B2, “Analogs of 17-hydroxywortmannin as PI3K inhibitors” (Wyeth, priority 2004, dated 2010).
In brackets after ≈: the same amount, converted by molar mass. Where two headings read alike, the source gives them in different places.

Assays:
[1] = system: DU145 (human prostate carcinoma/lymphocytic leukemia); experiment: Cell proliferation (MTS) assay, DU145; format: cell-based; conditions: three days treatment; for IC50: Homo sapiens, DU-145, 72 h
Summary of the method: (§1)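 Cells plated at about 3000 per well in RPMI-1640/10% FBS were dosed with compound one day later. Viability was read by MTS conversion (absorbance 490 nm, 1–2 h) three days after treatment began. Effect is expressed as percent of vehicle-treated growth on the same plate.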

[2] = system: MDA435 (human breast adenocarcinoma); experiment: Cell proliferation (MTS) assay, MDA435; format: cell-based; conditions: three days treatment; for IC50: Homo sapiens, MDA435, 72 h
Summary of the method: as §1

[3] = system: LNCaP (human prostate carcinoma); experiment: Cell proliferation (MTS) assay, LNCaP; format: cell-based; conditions: three days treatment; for IC50: Homo sapiens, LNCaP, 72 h
Summary of the method: as §1

C3H mammary model = conditions: cited from earlier work
[4] = system: phosphor-AKT (S473) in Rat1 cells; experiment: Rat1-IGF1 assay (IGF-1 induced phospho-AKT immunoblot); format: cell-based, rat; conditions: for IC50: Rattus norvegicus
Summary of the method: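 After 24 h serum starvation, Rat1 cells got vehicle or varying 17-HWT concentrations for 2 hours, then IGF-1 (100 ng/mL) for 30 minutes. Lysates immunoblotted for phospho-AKT (S473) and total AKT.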

Human TOR = biological target: T1, Human TOR (Homo sapiens, UniProt P42345); experiment: Human TOR (mTOR) kinase assay, DELFIA format; format: biochemical
T1 construct: FLAG
Summary of the method: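 Purified FLAG-TOR (800 ng/mL) phosphorylates His6-S6K ([…]) with […] ATP in Hepes pH 7.4 buffer containing MnCl2, 2 h at room temperature. Phospho-Thr389 S6K detected by DELFIA using Europium-labelled anti-P(T389)-p70S6K antibody; enzyme inhibition calculated from signal.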

[5] = system: MDA468 (human breast cancer cell); experiment: Cell proliferation (MTS) assay, MDA468; format: cell-based; conditions: three days treatment; for IC50: Homo sapiens, 72 h
Summary of the method: as §1

PI3K [6] = system: T2, PI3K; experiment: Fluorescence polarization assay for PI3K; format: biochemical; conditions: for PI3K FP IC50: Table 1; for IC50: Table 2
T2 construct: PI3K FP IC50
Summary of the method: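 PI3K was preincubated with compound at 1% DMSO final, then reacted with PIP2/ATP substrate for 30-60 min. The reaction was stopped with a detector mix giving 10 nM red probe and 70 nM GST-GRP. Fluorescence polarization (mP, Tamra filters) was read 30-90 min later and IC50 determined.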

PI3K [7] = conditions: cited from earlier work

| SMILES | IC50 (PI3K [6]) [nM] | IC50 ([1]; Table 2) [µg/mL] | IC50 ([2]; Table 2) [µg/mL] | IC50 ([3]; Table 2) [µg/mL] | IC50 ([4]; Table 2) [µg/mL] | IC50 (Human TOR; Table 2) [nM] | IC50 ([5]; Table 2) [µg/mL] | further results |
| --- | --- | --- | --- | --- | --- | --- | --- | --- |
| COC[C@H]1OC(=O)c2coc3c2[C@@]1(C)C1=C(C3=O)[C@@H]2CC[C@H](O)[C@@]2(C)C[C@H]1OC(C)=O [Compound 17-OH-Wort, 17β-Hydroxywortmannin, reference compound] | 2 |  |  |  |  |  |  | DU145 IC50 ([1]; Table 1): 15 µg/mL; DU145 IC50 ([1]; Table 2): 13 µg/mL; MDA435 IC50 ([2]; Table 1): >15 µg/mL; MDA435 IC50 ([2]; Table 2): 20 µg/mL; LNCaP IC50 ([3]; Table 1): 1 µg/mL; LNCaP IC50 ([3]; Table 2): 0.3 µg/mL; toxicity (C3H mammary model; dose of 1.0 mg/kg): toxicity; antitumor activity (C3H mammary model; dose of 0.5 (mg/kg)): no inhibition; Rat1-IGF1 IC50 ([4]; Table 1): <0.01 µg/mL; Rat1-IGF1 IC50 ([4]; Table 2): <0.01 µg/mL; TOR IC50 (Human TOR; Table 1): 0.076 µg/mL; TOR IC50 (Human TOR; Table 2): 0.059 µg/mL; MDA468 IC50 ([5]; Table 1): 2.3 µg/mL; MDA468 IC50 ([5]; Table 2): 3 µg/mL; PI3K FP IC50 (PI3K [6]): 0.0034 µg/mL; increase in activity relative to wortmannin (PI3K [7]; PI3K, literature): 10 fold; IC50 (PI3K [7]; literature value): 0.5 nM |
| COCC1OC(=O)C(=CN(CCO)CCO)C2=C(O)C(=O)C3=C(C(OC(C)=O)CC4(C)C(O)CCC34)C21C (stereo not drawn) [Compound 19, Acetic acid 4-{[bis-(2-hydroxy-ethyl)-amino]-methylene}-6,17-dihydroxy-1-methoxymethyl-10,13-dimethyl-3,7-dioxo-1,3,4,7,10,11,12,13,14,15,16,17-dodecahydro-2-oxa-cyclopenta[a]phenanthren-11-yl ester] | 918 | 1.7 (≈ 3.17 µM) | 6 (≈ 11.2 µM) | 0.07 (≈ 0.131 µM) | > 0.1 | > 18700 | 1.2 (≈ 2.24 µM) |  |
| COCC1OC(=O)C(=CN(C)CC(=O)OC(C)(C)C)C2=C(O)C(=O)C3=C(C(OC(C)=O)CC4(C)C(O)CCC34)C21C (stereo not drawn) [Compound 35, [(11-Acetoxy-6,17-dihydroxy-1-methoxymethyl-10,13-dimethyl-3,7-dioxo-1,7,10,11,12,13,14,15,16,17-decahydro-2-oxa-cyclopenta[a]phenanthren-4-ylidenemethyl)-methyl-amino]-acetic acid tert-butyl ester] | 1580 | 3 (≈ 5.21 µM) | 5.5 (≈ 9.55 µM) | 0.1 (≈ 0.174 µM) | 0.1 (≈ 0.174 µM) | 13900 | 1.4 (≈ 2.43 µM) |  |
| COCC1OC(=O)C(=CN2CCC2C(=O)O)C2=C(O)C(=O)C3=C(C(OC(C)=O)CC4(C)C(O)CCC34)C21C (stereo not drawn) [Compound 38, 1-(11-Acetoxy-6,17-dihydroxy-1-methoxymethyl-10,13-dimethyl-3,7-dioxo-1,7,10,11,12,13,14,15,16,17-decahydro-2-oxa-cyclopenta[a]phenanthren-4-ylidenemethyl)-azetidine-2-carboxylic acid] | 63 | 2.4 (≈ 4.52 µM) | 4 (≈ 7.53 µM) | 0.06 (≈ 0.113 µM) | 0.1 (≈ 0.188 µM) | 9590 | 1.3 (≈ 2.45 µM) |  |
| COCC1OC(=O)C(=CN2CCC(C(=O)OC)CC2)C2=C(O)C(=O)C3=C(C(OC(C)=O)CC4(C)C(O)CCC34)C21C (stereo not drawn) [Compound 22, 1-(11-Acetoxy-6,17-dihydroxy-1-methoxymethyl-10,13-dimethyl-3,7-dioxo-1,7,10,11,12,13,14,15,16,17-decahydro-2-oxa-cyclopenta[a]phenanthren-4-ylidenemethyl)-piperidine-4-carboxylic acid methyl ester] | 52 | 17 (≈ 29.6 µM) | 18 (≈ 31.4 µM) | 0.29 (≈ 0.506 µM) | 0.1 (≈ 0.174 µM) | 1690 | 3.5 (≈ 6.1 µM) |  |
| COC[C@H]1OC(=O)/C(=C/Nc2ccccc2)C2=C(O)C(=O)C3=C([C@H](OC(C)=O)C[C@]4(C)[C@@H](O)CC[C@@H]34)[C@]21C [Compound 3, (1E,4S,4aR,5R,6aS,7S,9aR)-1-(anilinomethylene)-7,11-dihydroxy-4-(methoxymethyl)-4a,6a-dimethyl-2,10-dioxo-1,2,4,4a,5,6,6a,7,8,9,9a,10-dodecahydroindeno[4,5-h]isochromen-5-yl acetate] |  |  |  |  |  |  |  | IC50 ([1]; Table 1): 12 µg/mL; IC50 ([2]; Table 1): 15 µg/mL; IC50 ([3]; Table 1): 3.5 µg/mL; IC50 ([4]; Table 1): > 0.1 µg/mL; IC50 (Human TOR; Table 1): 9170 nM; IC50 ([5]; Table 1): 5 µg/mL; PI3K FP IC50 (PI3K [6]): 0.228 µg/mL |
| COCC1OC(=O)C(=CN(CCCN(C)C)CCCN(C)C)C2=C(O)C(=O)C3=C(C(OC(C)=O)CC4(C)C(O)CCC34)C21C (stereo not drawn) [Compound 21, Acetic acid 4-{[bis-(3-dimethylamino-propyl)-amino]-methylene}-6,17-dihydroxy-1-methoxymethyl-10,13-dimethyl-3,7-dioxo-1,3,4,7,10,11,12,13,14,15,16,17-dodecahydro-2-oxa-cyclopenta[a]phenanthren-11-yl ester] | 22 | 12 (≈ 19.4 µM) | 11 (≈ 17.8 µM) | 0.16 (≈ 0.259 µM) | 0.1 (≈ 0.162 µM) | 3560 | 3.9 (≈ 6.31 µM) |  |

Continued, in another order:

| IC50 (PI3K [6]) [nM] | IC50 ([1]; Table 2) [µg/mL] | IC50 ([2]; Table 2) [µg/mL] | IC50 ([3]; Table 2) [µg/mL] | IC50 ([4]; Table 2) [µg/mL] | IC50 (Human TOR; Table 2) [nM] | IC50 ([5]; Table 2) [µg/mL] | SMILES | further results |
| --- | --- | --- | --- | --- | --- | --- | --- | --- |
| 15 | 20.5 (≈ 29.5 µM) | 16 (≈ 23.1 µM) | 0.43 (≈ 0.62 µM) | 0.02 (≈ 0.0288 µM) | 1350 | 4.3 (≈ 6.2 µM) | COCC1OC(=O)C(=CN(C)CCCN2CCN(c3ccc(OC)cc3)CC2)C2=C(O)C(=O)C3=C(C(OC(C)=O)CC4(C)C(O)CCC34)C21C (stereo not drawn) [Compound 25, Acetic acid 6,17-dihydroxy-1-methoxymethyl-4-[({3-[4-(4-methoxy-phenyl)-piperazin-1-yl]-propyl}-methyl-amino)-methylene]-10,13-dimethyl-3,7-dioxo-1,3,4,7,10,11,12,13,14,15,16,17-dodecahydro-2-oxa-cyclopenta[a]phenanthren-11-yl ester] |  |
| 9 | 21 (≈ 39.4 µM) | 23 (≈ 43.2 µM) | 0.4 (≈ 0.751 µM) | 0.1 (≈ 0.188 µM) | 1280 | 4 (≈ 7.51 µM) | COCC1OC(=O)C(=CN(C)CCN(C)C)C2=C(O)C(=O)C3=C(C(OC(C)=O)CC4(C)C(O)CCC34)C21C (stereo not drawn) [Compound 31, Acetic acid 4-{[(2-dimethylamino-ethyl)-methyl-amino]-methylene}-6,17-dihydroxy-1-methoxymethyl-10,13-dimethyl-3,7-dioxo-1,3,4,7,10,11,12,13,14,15,16,17-dodecahydro-2-oxa-cyclopenta[a]phenanthren-11-yl ester] |  |
| 46 | 21 (≈ 32.6 µM) | 21 (≈ 32.6 µM) | 0.41 (≈ 0.637 µM) | 0.02 (≈ 0.0311 µM) | 1200 | 4 (≈ 6.21 µM) | COCC1OC(=O)C(=CN2CCN(CCCN3CCOCC3)CC2)C2=C(O)C(=O)C3=C(C(OC(C)=O)CC4(C)C(O)CCC34)C21C (stereo not drawn) [Compound 30, Acetic acid 6,17-dihydroxy-1-methoxymethyl-10,13-dimethyl-4-[4-(3-morpholin-4-yl-propyl)-piperazin-1-ylmethylene]-3,7-dioxo-1,3,4,7,10,11,12,13,14,15,16,17-dodecahydro-2-oxa-cyclopenta[a]phenanthren-11-yl ester] |  |
| 78 | 20 (≈ 31.8 µM) | 18 (≈ 28.6 µM) | 0.5 (≈ 0.794 µM) | 0.1 (≈ 0.159 µM) | 619 | 4.3 (≈ 6.83 µM) | COCC1OC(=O)C(=CN2CCN(CCN3CCOCC3)CC2)C2=C(O)C(=O)C3=C(C(OC(C)=O)CC4(C)C(O)CCC34)C21C (stereo not drawn) [Compound 33, Acetic acid 6,17-dihydroxy-1-methoxymethyl-10,13-dimethyl-4-[4-(2-morpholin-4-yl-ethyl)-piperazin-1-ylmethylene]-3,7-dioxo-1,3,4,7,10,11,12,13,14,15,16,17-dodecahydro-2-oxa-cyclopenta[a]phenanthren-11-yl ester] |  |
| 24 | 23 (≈ 39.1 µM) | 30 (≈ 51 µM) | 0.35 (≈ 0.595 µM) | 0.1 (≈ 0.17 µM) | 2290 | 5 (≈ 8.49 µM) | COCC1OC(=O)C(=CN(C)CCCN2CCOCC2)C2=C(O)C(=O)C3=C(C(OC(C)=O)CC4(C)C(O)CCC34)C21C (stereo not drawn) [Compound 27, Acetic acid 6,17-dihydroxy-1-methoxymethyl-10,13-dimethyl-4-{[methyl-(3-morpholin-4-yl-propyl)-amino]-methylene}-3,7-dioxo-1,3,4,7,10,11,12,13,14,15,16,17-dodecahydro-2-oxa-cyclopenta[a]phenanthren-11-yl ester] |  |
| 19 | 17 (≈ 28.3 µM) | 21 (≈ 34.9 µM) | 0.28 (≈ 0.465 µM) | 0.02 (≈ 0.0332 µM) | 2330 | 3.9 (≈ 6.48 µM) | COCC1OC(=O)C(=CN(C)CCCN2CCN(C)CC2)C2=C(O)C(=O)C3=C(C(OC(C)=O)CC4(C)C(O)CCC34)C21C (stereo not drawn) [Compound 26, Acetic acid 6,17-dihydroxy-1-methoxymethyl-10,13-dimethyl-4-({methyl-[3-(4-methyl-piperazin-1-yl)-propyl]-amino}-methylene)-3,7-dioxo-1,3,4,7,10,11,12,13,14,15,16,17-dodecahydro-2-oxa-cyclopenta[a]phenanthren-11-yl ester] |  |
